In patent US10537558B2 (Bantam Pharmaceutical, LLC, priority 2015, dated 2020):
pEC50: −log10 of the molar value.

Test system: BJAB cells
Test: BJAB cell proliferation (Cell Titer Glo)
Type: cell-based
Conditions: Homo sapiens, read-out: EC50
Experimental: Cells were seeded in white Corning Costar 96-well assay plates at 2500 cells/well in 50 μL of medium. Serial dilutions of test compounds were made in cell culture medium/FBS+0.2% DMSO, and transferred to assay plates in a volume of 50 μL (DMSO at 0.1% final). Plates were maintained at 37° C. for approximately 72 hours. The effect of compounds on cell proliferation was evaluated using the Cell Titer Glo reagent (Promega), according to the manufacturer's instructions. Briefly, 100 μL of reagent was added per well, and after a 10 minute incubation luminescence values were determined on a plate reader (Tecan F200PRO). The percent of luminescence signal relative to untreated controls was calculated for each compound concentration, and EC50 values were determined from dose response data by non-linear regression analysis using Prism (GraphPad). The mTor inhibitor Torin1 (Liu, et al. (2010) J. Med. Chem. 53, 7146.) was used as a control. The data are summarized in the compound table provided above.

Row | Compound | pEC50
1 | Cc1nn(-c2nc(-c3ccc4nccn4c3)c(SC(C)C)s2)c(C(=O)O)c1-c1cc(Cl)cc(Cl)c1 [Compound 31, 4-(3,5-dichlorophenyl)-1-(4-(imidazo[1,2-a]pyridin-6-yl)-5-(isopropylthio)thiazol-2-yl)-3-methyl-1H-pyrazole-5-carboxylic acid] | < 4.60
2 | CCC(C)Sc1sc(-n2nc(C)c(-c3cc(Cl)cc(Cl)c3)c2C(=O)OC)nc1-c1ccc(Cl)c(Cl)c1 (centres unmarked) [Compound 32a] | < 4.60
3 | CCC(C)Sc1sc(-n2nc(C)c(-c3cc(Cl)cc(Cl)c3)c2C(=O)O)nc1-c1ccc(Cl)c(Cl)c1 (centres unmarked) [Compound 32b] | 5.30 to 6.00
4 | CCC(C)Sc1sc(-n2nc(C)c(-c3cc(C)nc(C)c3)c2C(=O)OC)nc1-c1ccc(Cl)c(Cl)c1 (centres unmarked) [Compound 33a] | < 4.60
5 | CCC(C)Sc1sc(-n2nc(C)c(-c3cc(C)nc(C)c3)c2C(=O)O)nc1-c1ccc(Cl)c(Cl)c1 (centres unmarked) [Compound 33b] | > 6.00
6 | COc1ccccc1-c1nc(-n2nc(C)c(-c3cc(C)nc(C)c3)c2C(=O)O)sc1SC(C)C [Compound 34, 4-(2,6-dimethylpyridin-4-yl)-1-(5-(isopropylthio)-4-(2-methoxyphenyl)thiazol-2-yl)-3-methyl-1H-pyrazole-5-carboxylic acid] | 5.00 to 5.30
7 | COc1cccc(-c2nc(-n3nc(C)c(-c4cc(C)nc(C)c4)c3C(=O)O)sc2SC(C)C)c1 [Compound 35, 4-(2,6-dimethylpyridin-4-yl)-1-(5-(isopropylthio)-4-(3-methoxyphenyl)thiazol-2-yl)-3-methyl-1H-pyrazole-5-carboxylic Acid] | 5.30 to 6.00
8 | COc1ccc(-c2nc(-n3nc(C)c(-c4cc(C)nc(C)c4)c3C(=O)O)sc2SC(C)C)cc1 [Compound 36, 4-(2,6-dimethylpyridin-4-yl)-1-(5-(isopropylthio)-4-(4-methoxyphenyl)thiazol-2-yl)-3-methyl-1H-pyrazole-5-carboxylic acid] | 4.60 to 5.00
9 | Cc1cc(-c2c(C)nn(-c3nc(-c4ccccc4)c(SC(C)C)s3)c2C(=O)O)cc(C)n1 [Compound 37, 4-(2,6-dimethylpyridin-4-yl)-1-(5-(isopropylthio)-4-phenylthiazol-2-yl)-3-methyl-1H-pyrazole-5-carboxylic Acid] | 5.00 to 5.30
10 | Cc1nn(-c2nc(-c3ccc(Cl)c(Cl)c3)c(SC(C)C)s2)c(C(=O)O)c1-c1c(CO)noc1C [Compound 38, 1-(4-(3,4-dichlorophenyl)-5-(isopropylthio)thiazol-2-yl)-4-(3-(hydroxymethyl)-5-methylisoxazol-4-yl)-3-methyl-1H-pyrazole-5-carboxylic acid] | < 4.30
11 | COCc1noc(C)c1-c1c(C)nn(-c2nc(-c3ccc(Cl)c(Cl)c3)c(SC(C)C)s2)c1C(=O)O [Compound 39, 1-(4-(3,4-dichlorophenyl)-5-(isopropylthio)thiazol-2-yl)-4-(3-(methoxymethyl)-5-methylisoxazol-4-yl)-3-methyl-1H-pyrazole-5-carboxylic acid] | 4.60 to 5.00
12 | Cc1ccc(-c2nc(-n3nc(C)c(-c4cc(C)nc(C)c4)c3C(=O)O)sc2SC(C)C)cc1 [Compound 40, 4-(2,6-dimethylpyridin-4-yl)-1-(5-(isopropylthio)-4-p-tolylthiazol-2-yl)-3-methyl-1H-pyrazole-5-carboxylic acid] | 5.30 to 6.00
13 | Cc1cccc(-c2nc(-n3nc(C)c(-c4cc(C)nc(C)c4)c3C(=O)O)sc2SC(C)C)c1 [Compound 41, 4-(2,6-dimethylpyridin-4-yl)-1-(5-(isopropylthio)-4-m-tolylthiazol-2-yl)-3-methyl-1H-pyrazole-5-carboxylic Acid] | 5.00 to 5.30
14 | Cc1cc(-c2c(C)nn(-c3nc(-c4ccccc4C)c(SC(C)C)s3)c2C(=O)O)cc(C)n1 [Compound 42, 4-(2,6-dimethylpyridin-4-yl)-1-(5-(isopropylthio)-4-o-tolylthiazol-2-yl)-3-methyl-1H-pyrazole-5-carboxylic acid] | 5.30 to 6.00
